Here are results for one substance from PMC6588697, “Lugdunin amplifies innate immune responses in the skin in synergy with host- and microbiota-derived factors” (Nature Communications, 2019).

Experiment [1] concerns HEK293 cells. Nature of the experiment: CXCL8 expression in HEK-control cells (qRT-PCR). It is filed as cell-based, human. Conditions: 5 h, Fig 2b. The protocol: (§1) Fig. 2 Induction of chemokine (C-X-C motif) ligand 8/macrophage inflammatory protein-2 (CXCL8/MIP-2) by lugdunin is TLR2/MyD88-dependent. a HEK-control or HEK-TLR2 cells were treated with 2 μM lugdunin for 5 h and subsequently the CXCL8 concentration in the supernatant was analyzed by LEGENDplex^TM (BioLegend). Shown is one representative experiment of three independent experiments with two technical replicates ± s.e.m. b HEK-control or HEK-TLR2 cells were treated with increasing concentrations of lugdunin for 5 h and subsequently expression of CXCL8 was analyzed and normalized to actin. Shown is one representative experiment of three independent experiments with two technical replicates ± s.e.m. c Schematic overview of the mouse experiments: 6–8-week-old female C5BL/6 WT, MyD88-knockout (ko), or 5xTLR-ko mice were epicutaneously treated with 1.5 µg lugdunin or phosphate-buffered saline (PBS) as a control. After 24 h, mice were euthanized, 4 mm skin punches were taken, and further cultured in vitro for 10 h followed by cytokine analysis of the culture supernatant by LEGENDplex^TM (BioLegend). d, e Shown are the mean concentrations of IL-1α (d) or MIP-2 (e) in the skin culture supernatant of two skin punches from four mice each ± s.e.m. Significant differences to control treatments were analyzed by an unpaired two-tailed t test (*P < 0.05; **P < 0.01; ***P < 0.001). f Representative MIP-2-stained paraffin-embedded mouse skin sections. Scale bar, 100 µM. Source data are provided as a Source Data file
(§2) Quantitative reverse transcription-polymerase chain reaction (qRT-PCR) was performed in 10 µL reaction volume with SYBR^TM Green PCR Master Mix (Thermo Fisher) according to the manufacturer’s instructions using a LightCycler 96 (Roche Life Science). The initial denaturation step was at 95 °C for 5 min, followed by 40 cycles with 10 s each for the denaturation step at 95 °C, the annealing at individual temperature, and the elongation at 72 °C. Primer sequences and respective annealing temperatures are listed in Supplementary Table 1. […]
(Real-time PCR tracks product formation cycle by cycle.)

For experiment [2], the system named is HTEpCs. Briefly: CXCL8 expression in HTEpCs (qRT-PCR). It is filed as cell-based, human. Conditions: 5 h, two technical replicates. The protocol: as §2
31 g+h+i: HNEpCs (b), HTEpCs (c) or PBMCs (d) were treated with increasing
32 concentrations of lugdunin (grey bars) or 100 ng/mL Pam2Cys or Pam3Cys (white
33 bars) as positive controls for 5 hours and subsequently expression of CXCL8 was
34 analyzed and normalized to actin. Black bar: medium control. Shown is one
35 representative experiment of three independent experiments with two technical
36 replicates +/-s.e.m. Significant differences to control treatments were analyzed by
37 ordinary one-way ANOVA followed by Dunnett’s multiple comparisons test (*P<0.05; […]

Experiment [3] has as its system mouse skin. Briefly: Cytokines in mouse skin culture supernatant after epicutaneous treatment. The class given is in vivo, C57BL/6 WT, MyD88-ko, 5xTLR-ko mice. Conditions: 1.5 µg lugdunin epicutaneous 24 h; for MIP-2 concentration in skin culture supernatant: Fig 2e; for IL-1α concentration in skin culture supernatant: Fig 2d. The protocol: as §1
For cytokine analysis from cell cultures, 10 µL of supernatant was used for cytokine analysis via the LEGENDplex^TM human inflammation panel (BioLegend). For cytokine analysis from mouse skin, 4 mm skin punches were cultured in an airlift system where only the dermis had access to medium for 10 h. Skin punches were cultured in RPMI containing 1% FCS (Biochrom/Merck Millipore), 1% penicillin and streptomycin (Gibco/Life Technologies) and 0.25 µg/mL amphotericin B (CELLnTEC). Ten microliters of a 3-fold dilution of culture supernatant was used for cytokine analysis via the LEGENDplex^TM mouse inflammation panel (BioLegend). Samples were acquired in duplicates using a BD LSRII flow cytometer (BD Biosciences) and LEGENDplex^TM Software (BioLegend).
For IL-1α analysis, 100 µL of cell culture supernatant was analyzed via ELISA (R&D Systems) according to manufacturer’s instruction. For MIP-2 analysis, 100 µL of a 5-fold dilution from skin cultures supernatant was used and analyzed via ELISA (R&D Systems) according to the manufacturer’s instruction. For LL-37 ELISA, ELISA plates (Nunc) were coated overnight at 4 °C with 100 µL of cell culture supernatant or 2-fold dilutions of LL-37 starting from 8 µg/mL. The next day, the plate was washed three times using PBS + 0.5% BSA + 0.05% Triton X-100, followed by incubation with 100 µL primary antibody against hCAP18/LL-37 (HycultBiotech, Cat#HM2071, 1:120 in PBS + 0.5% BSA + 0.05% Triton X-100) at 37 °C for 1 h. After washing, incubation with 100 µL secondary antibody (Cell Signaling, Cat#7076S, 1:3000 in PBS + 0.5% BSA + 0.05% Triton X-100) followed at 37 °C for 1 h. Subsequently, plates were washed and 100 µL TMB substrate solution (Cell Signaling) was added. Reaction was stopped with 50 µL 2 N H2SO4 and absorbance at 450 nm was measured using a Fluoroskan II (Labsystems).
To analyze the immune cell composition and cytokines in the skin, 15 µL containing 1.5 μg lugdunin or PBS as a control were epicutaneously applied for 24 h on the shaved back skin of C57BL/6 WT/MYD88-ko/5xTLR-ko mice. After 24 h, mice were euthanized and relevant skin areas or 4 mm skin punches were removed for immune cell analysis and LEGENDplex^TM (BioLegend) cytokine analysis. […]
55 c: Shown are the mean concentrations of the indicated cytokines in the supernatant of
56 the organ skin culture of two skin punches from four mice each +/- s.e.m. […]
61 Source data are provided as a Source Data file.

[4] abbreviates: 5xTLR-ko mice, punches cultured 10 h, single punches.
Where [5] appears, read: MyD88-ko mice, punches cultured 10 h, single punches.

Values joined by “and” are separate entries in the source; they are usually repeats but may differ in a detail not shown here. Identical values can stand only once.

On to Lugdunin, for which the “CXCL8 expression normalized to actin” value in experiment [1] (lugdunin 0.5 µM, medium = 1, two technical replicates) is 1.3 and 1.16; in experiment [1] (lugdunin 1 µM, two technical replicates), 1.15 and 1.02; in experiment [1] (lugdunin 2 µM, two technical replicates), 2.66 and 2.46; in experiment [1] (lugdunin 3 µM, two technical replicates), 1.96 and 1.97; in experiment [1] (lugdunin 5 µM, two technical replicates) it was 2.91 and 2.73; in experiment [1] (lugdunin 10 µM, two technical replicates), 1.84 and 1.91. The CXCL8 fold induction in experiment [2] (lugdunin 0.5 µM, sheet Supp Fig 1g) is 1.537 and 1.231; in experiment [2] (lugdunin 1 µM), 4.112 and 4.228; in experiment [2] (lugdunin 2 µM) it was 16.564 and 16; in experiment [2] (lugdunin 3 µM), 18.001 and 14.929; in experiment [2] (lugdunin 5 µM), 23.264 and 22.316; in experiment [2] (lugdunin 10 µM), 16.056 and 17.328. Besides, the “MIP-2 concentration in skin culture supernatant” value in experiment [3] (setting [4]) is reported as “reduced”; in experiment [3] (setting [5]), “completely impaired”; in experiment [3] (WT mice, punches cultured 10 h, single punches), “induced”. Moreover, the “IL-1α concentration in skin culture supernatant” value is on record as “still able to induce” in experiment [3] (setting [4]); “still able to induce” in experiment [3] (setting [5]); “induced” in experiment [3] (WT mice, skin punches cultured 10 h, single punches (rows)).
